Data taken from PubChem BioAssay (NCI).
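A five-concentration, 48-hour dose response in 96-well plates underlies each endpoint, interpolated linearly between surrounding concentrations. At the GI50, growth is halved. TGI is the concentration that stops growth completely.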

Tests used:
Experiment in all cases: NCI-60 cell line screen, 48 h
NCI-H23 lung = tested on: NCI-H23 lung
NCI-H460 lung = tested on: NCI-H460 lung
NCI-H522 lung = tested on: NCI-H522 lung
NCI/ADR-RES ovarian = tested on: NCI/ADR-RES ovarian
OVCAR-3 ovarian = tested on: OVCAR-3 ovarian
OVCAR-4 ovarian = tested on: OVCAR-4 ovarian
OVCAR-5 ovarian = tested on: OVCAR-5 ovarian
OVCAR-8 ovarian = tested on: OVCAR-8 ovarian
PC-3 prostate = tested on: PC-3 prostate
RPMI-8226 leukemia = tested on: RPMI-8226 leukemia
RXF 393 renal = tested on: RXF 393 renal
SF-268 CNS = tested on: SF-268 CNS
SF-295 CNS = tested on: SF-295 CNS
SF-539 CNS = tested on: SF-539 CNS
SK-MEL-2 melanoma = tested on: SK-MEL-2 melanoma
SK-MEL-28 melanoma = tested on: SK-MEL-28 melanoma
SK-MEL-5 melanoma = tested on: SK-MEL-5 melanoma
SK-OV-3 ovarian = tested on: SK-OV-3 ovarian
SN12C renal = tested on: SN12C renal
SNB-19 CNS = tested on: SNB-19 CNS
SNB-75 CNS = tested on: SNB-75 CNS
SR leukemia = tested on: SR leukemia
SW-620 colon = tested on: SW-620 colon
T-47D breast = tested on: T-47D breast
TK-10 renal = tested on: TK-10 renal
U251 CNS = tested on: U251 CNS
UACC-257 melanoma = tested on: UACC-257 melanoma
UACC-62 melanoma = tested on: UACC-62 melanoma
UO-31 renal = tested on: UO-31 renal

Work on `C=C(C)C(=O)Oc1ccc(N=Nc2ccc(C)cc2)ccc1=O` yielded a TGI (NCI-H23 lung) of 17.8 µM, a GI50 (NCI-H460 lung) of 2850 nM and a TGI (NCI-H460 lung) of 10.2 µM. The GI50 (NCI-H522 lung) was 4.95 µM, the TGI (NCI-H522 lung) was 18.1 µM and the GI50 (NCI/ADR-RES ovarian) was 3.14 µM. It also gave a TGI (NCI/ADR-RES ovarian) of 11.4 µM, a GI50 (OVCAR-3 ovarian) of 2090 nM and a TGI (OVCAR-3 ovarian) of 8.13 µM. The GI50 (OVCAR-4 ovarian) was 3.63 µM, the TGI (OVCAR-4 ovarian) was 14.4 µM and the GI50 (OVCAR-5 ovarian) was 8.26 µM. It also gave a TGI (OVCAR-5 ovarian) of 21.8 µM, a GI50 (OVCAR-8 ovarian) of 3.15 µM and a TGI (OVCAR-8 ovarian) of 10.9 µM. It also gave a GI50 (PC-3 prostate) of 5.54 µM, a TGI (PC-3 prostate) of 24.4 µM and a GI50 (RPMI-8226 leukemia) of 3.73 µM. It also gave a TGI (RPMI-8226 leukemia) of 17.8 µM, a GI50 (RXF 393 renal) of 3.93 µM and a TGI (RXF 393 renal) of 14.8 µM. For the same molecule, the GI50 (SF-268 CNS) was 2620 nM, the TGI (SF-268 CNS) was 11.2 µM and the GI50 (SF-295 CNS) was 1660 nM. The TGI (SF-295 CNS) was 4.66 µM, the GI50 (SF-539 CNS) was 5.17 µM and the TGI (SF-539 CNS) was 18.1 µM. It also gave a GI50 (SK-MEL-2 melanoma) of 8.31 µM, a TGI (SK-MEL-2 melanoma) of 28.6 µM and a GI50 (SK-MEL-28 melanoma) of 3.39 µM. The TGI (SK-MEL-28 melanoma) was 11.7 µM, the GI50 (SK-MEL-5 melanoma) was 4 µM and the TGI (SK-MEL-5 melanoma) was 15.2 µM. For the same molecule, the GI50 (SK-OV-3 ovarian) was 4.72 µM, the TGI (SK-OV-3 ovarian) was 27.7 µM and the GI50 (SN12C renal) was 3.89 µM. The TGI (SN12C renal) was 18.5 µM, the GI50 (SNB-19 CNS) was 3.68 µM and the TGI (SNB-19 CNS) was 21.8 µM. The GI50 (SNB-75 CNS) was 2660 nM, the TGI (SNB-75 CNS) was 10.3 µM and the GI50 (SR leukemia) was 2470 nM. The TGI (SR leukemia) was 8.28 µM, the GI50 (SW-620 colon) was 3.16 µM and the TGI (SW-620 colon) was 13.4 µM. It also gave a GI50 (T-47D breast) of 3.14 µM, a TGI (T-47D breast) of 14.7 µM and a GI50 (TK-10 renal) of 10.7 µM. The TGI (TK-10 renal) was 82.4 µM, the GI50 (U251 CNS) was 3.11 µM and the TGI (U251 CNS) was 12.7 µM. The GI50 (UACC-257 melanoma) was 2990 nM, the TGI (UACC-257 melanoma) was 13 µM and the GI50 (UACC-62 melanoma) was 1950 nM. The TGI (UACC-62 melanoma) was 4.42 µM, the GI50 (UO-31 renal) was 2550 nM and the TGI (UO-31 renal) was 8.38 µM.
